Experimental data reported in ChEMBL document CHEMBL1201862, “PubChem BioAssay data set” (2004).
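Results reflect a 48-hour exposure of cells in 96-well plates to compound at five concentrations. At the GI50, growth is halved.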 The source made the active and inactive calls. No stated cut-off is given here; in the data, active = GI50 up to about 1.1 µM and inactive = higher.

Legend:
Assay in all cases: NCI tumour cell line growth inhibition, 48 h
SF-268 = system: SF-268
UACC-62 = system: UACC-62
HCT-15 = system: HCT-15
COLO 205 = system: COLO 205
NCI-H522 = system: NCI-H522
ACHN = system: ACHN
SNB-19 = system: SNB-19
T47D = system: T47D
EKVX = system: EKVX
MDA-N = system: MDA-N
HL-60 = system: HL-60
NCI/ADR-RES = system: NCI/ADR-RES
SN12C = system: SN12C
A549 = system: A549
RPMI-8226 = system: RPMI-8226
PC-3 = system: PC-3
RXF 393 = system: RXF 393
SK-MEL-2 = system: SK-MEL-2
M14 = system: M14
A498 = system: A498
MDA-MB-435 = system: MDA-MB-435
SK-OV-3 = system: SK-OV-3
OVCAR-5 = system: OVCAR-5
BT-549 = system: BT-549
NCI-H460 = system: NCI-H460
NCI-H226 = system: NCI-H226
SK-MEL-5 = system: SK-MEL-5
HCC 2998 = system: HCC 2998
CCRF-CEM = system: CCRF-CEM
Hs-578T = system: Hs-578T
HOP-62 = system: HOP-62
OVCAR-3 = system: OVCAR-3
SW-620 = system: SW-620
SF-539 = system: SF-539
MCF7 = system: MCF7
HT-29 = system: HT-29
NCI-H23 = system: NCI-H23
MDA-MB-231 = system: MDA-MB-231
TK-10 = system: TK-10
SK-MEL-28 = system: SK-MEL-28
LOX IMVI = system: LOX IMVI
SR = system: SR
OVCAR-4 = system: OVCAR-4
K562 = system: K562
IGROV-1 = system: IGROV-1
UO-31 = system: UO-31
SNB-75 = system: SNB-75
U-251 = system: U-251
Malme-3M = system: Malme-3M
DU-145 = system: DU-145
KM12 = system: KM12
MOLT-4 = system: MOLT-4
786-0 = system: 786-0
HOP-92 = system: HOP-92
SF-295 = system: SF-295
CAKI-1 = system: CAKI-1
HCT-116 = system: HCT-116
UACC-257 = system: UACC-257
OVCAR-8 = system: OVCAR-8

Measured: GI50

CC(=O)c1sc(=N)n(-c2c(C)cccc2C)c1C
> 100 µM: HCT-15
inactive: SF-268 > 100 µM | UACC-62 > 100 µM | COLO 205 > 100 µM | NCI-H522 > 100 µM | ACHN > 100 µM | SNB-19 > 100 µM | T47D > 100 µM | EKVX > 100 µM | MDA-N > 100 µM | HL-60 > 100 µM | NCI/ADR-RES > 100 µM | SN12C > 100 µM | A549 > 100 µM | RPMI-8226 > 100 µM | PC-3 > 100 µM | RXF 393 > 100 µM | SK-MEL-2 > 100 µM | M14 > 100 µM | A498 > 100 µM | MDA-MB-435 > 100 µM | SK-OV-3 > 100 µM | OVCAR-5 > 100 µM | BT-549 > 100 µM | NCI-H460 > 100 µM | NCI-H226 > 100 µM | SK-MEL-5 > 100 µM | HCC 2998 > 100 µM | CCRF-CEM > 100 µM | Hs-578T > 100 µM | HOP-62 > 100 µM | OVCAR-3 > 100 µM | SW-620 > 100 µM | SF-539 > 100 µM | MCF7 > 100 µM | HT-29 > 100 µM | NCI-H23 > 100 µM | MDA-MB-231 > 100 µM | TK-10 > 100 µM | SK-MEL-28 > 100 µM | LOX IMVI > 100 µM | SR > 100 µM | OVCAR-4 > 100 µM | K562 > 100 µM | IGROV-1 > 100 µM | UO-31 > 100 µM | SNB-75 > 100 µM | U-251 > 100 µM | Malme-3M > 100 µM | DU-145 > 100 µM | KM12 > 100 µM | MOLT-4 > 100 µM | 786-0 > 100 µM

Cc1cnc2nc(-c3sccc3C)cc(O)c2c1
1.57 µM: HCT-15
inactive: SF-268 10.9 µM | UACC-62 2.59 µM | COLO 205 3.21 µM | ACHN 8.85 µM | SNB-19 2.85 µM | T47D > 100 µM | EKVX 7.06 µM | NCI/ADR-RES 2.31 µM | SN12C 10.2 µM | A549 3.96 µM | PC-3 3.78 µM | RXF 393 3.42 µM | SK-MEL-2 3.4 µM | M14 2.25 µM | A498 23.4 µM | SK-OV-3 4.03 µM | OVCAR-5 > 24 µM | HOP-92 97.3 µM | BT-549 9.42 µM | NCI-H460 2.99 µM | NCI-H226 4.14 µM | SK-MEL-5 1.23 µM | HCC 2998 6.07 µM | CCRF-CEM 1.6 µM | Hs-578T 2.3 µM | HOP-62 5.08 µM | OVCAR-3 3.13 µM | SW-620 1.91 µM | SF-539 5.81 µM | MCF7 2.84 µM | HT-29 2.4 µM | NCI-H23 3.7 µM | MDA-MB-231 18.1 µM | TK-10 > 33.7 µM | SF-295 2.26 µM | SK-MEL-28 23 µM | LOX IMVI 7.83 µM | OVCAR-4 > 100 µM | CAKI-1 6.47 µM | HCT-116 3.33 µM | K562 5.04 µM | IGROV-1 1.49 µM | UO-31 6.25 µM | SNB-75 4.32 µM | UACC-257 8.38 µM | U-251 4.86 µM | Malme-3M 1.37 µM | OVCAR-8 4.06 µM | DU-145 4.74 µM | KM12 3.1 µM | MOLT-4 6.18 µM | 786-0 4.1 µM
active: NCI-H522 1.12 µM | MDA-N 0.361 µM | MDA-MB-435 0.342 µM | SR 0.471 µM

C#Cc1nc(N)c2ncn(C3OC(COS(N)(=O)=O)C(O)C3O)c2n1 (configuration not stated)
active: SF-268 0.018 µM | UACC-62 0.0537 µM | COLO 205 0.0277 µM | NCI-H522 < 0.01 µM | ACHN < 0.0146 µM | SNB-19 0.0208 µM | T47D < 0.01 µM | EKVX 0.262 µM | MDA-N < 0.0168 µM | NCI/ADR-RES < 0.0184 µM | SN12C 0.0172 µM | A549 0.0881 µM | RPMI-8226 0.0172 µM | PC-3 < 0.0204 µM | RXF 393 < 0.0179 µM | SK-MEL-2 0.0101 µM | M14 < 0.0426 µM | A498 < 0.0148 µM | MDA-MB-435 0.016 µM | SK-OV-3 < 0.01 µM | OVCAR-5 < 0.0148 µM | HOP-92 < 0.01 µM | BT-549 < 0.01 µM | NCI-H460 < 0.0193 µM | NCI-H226 0.0158 µM | SK-MEL-5 0.0361 µM | HCC 2998 < 0.01 µM | CCRF-CEM < 0.0189 µM | Hs-578T 0.0379 µM | HOP-62 0.146 µM | OVCAR-3 < 0.0194 µM | SW-620 < 0.0248 µM | SF-539 0.0362 µM | MCF7 0.0124 µM | HT-29 0.0233 µM | NCI-H23 < 0.0164 µM | MDA-MB-231 < 0.0185 µM | TK-10 < 0.022 µM | SF-295 0.757 µM | SK-MEL-28 0.0374 µM | LOX IMVI < 0.0176 µM | SR < 0.01 µM | OVCAR-4 < 0.0193 µM | CAKI-1 0.0559 µM | HCT-116 0.0184 µM | K562 0.0131 µM | IGROV-1 0.0291 µM | UO-31 < 0.0187 µM | SNB-75 0.02 µM | UACC-257 < 0.0318 µM | U-251 0.0213 µM | OVCAR-8 0.0188 µM | DU-145 0.0518 µM | KM12 < 0.0193 µM | MOLT-4 < 0.0181 µM | 786-0 0.0367 µM
< 0.0214 µM: HCT-15
